These results are taken from ChEMBL document CHEMBL5338711, “Designing and development of phthalimides as potent anti-tubulin hybrid molecules against malaria” (Eur J Med Chem, 2022).

SMILES strings stand for the structures. pIC50: −log10 of the molar value. Active and inactive are the calls of the source. The calls are words filed in the database; no cut-off is given here. Some results are limits rather than exact numbers.

Data set [1] deals with Plasmodium falciparum. Kind of data set: Antimalarial activity against […] infected in human RBC assessed as inhibition of plasmodial growth at 1 uM by SYBR green dye based spectrofluorometric analysis relative to control. In kind it is functional. The following applies: 3D7, Erythrocyte.
Data set [2] has as its system Plasmodium falciparum. Description: Antimalarial activity against […] infected in human RBC assessed as inhibition of plasmodial growth at 10 uM by SYBR green dye based spectrofluorometric analysis relative to control. It is filed as functional. The following applies: 3D7, Erythrocyte.
A short description of data set [3]: Cytotoxicity against human U-937 cells. It is filed as toxicity, cell-based.
For data set [4], the system named is Plasmodium falciparum. Description: Antiplasmodial activity against Plasmodium falciparum 3D7. In kind it is functional, organism-based.
Data set [5] deals with Plasmodium falciparum. Description: Antiplasmodial activity against synchronized ring stage Plasmodium falciparum 3D7 infected in human RBC assessed as reduction in parasitemia percentage by measuring defect in egress stage at IC50 concentration measured after 60 hrs by giemsa staining based light microscopic analysis. It is filed as functional, organism-based.
The next data set deals with Erythrocyte. Kind of data set: Hemolytic activity in human RBC assessed as hemolysis upto 5 uM incubated for 2 hrs. It is filed as toxicity, cell-based.
For data set [6], the system named is Plasmodium berghei. Description: Antimalarial activity against Plasmodium berghei ANKA in BALB/c mouse injected with parasite infected erythrocytes assessed as […] mean survival time at 30 mg/kg, ip administered daily for 7 days and measured after 15 days. In kind it is functional. The following applies: time 15 day.
Data set [7] can be described thus: Therapeutic index, ratio of CC50 for human HepG2 cells to IC50 for chloroquine-sensitive synchronized late stage trophozoite Plasmodium falciparum 3D7 infected in human RBC. It is filed as toxicity. As to conditions: read-out: TI.
For data set [8], the system named is Plasmodium falciparum. Kind of data set: Binding affinity to recombinant N-terminal 6His tagged Plasmodium falciparum alpha-1 tubulin expressed in Escherichia coli BL21 assessed as thermo-stabilization incubated at 4 to 80 degreeC for 3 mins followed by 5 mins incubation at room temperature by thermal shift assay. The following applies: time 8.0 min.
For data set [9], the system named is Plasmodium falciparum. Description: Synergistic antimalarial activity against synchronized ring stage Plasmodium falciparum 3D7 infected in human RBC assessed as mean fractional inhibitory concentration at 1:4 ratio of ART to compound incubated for 72 hrs by giemsa staining based flow cytometric analysis. It is filed as functional.
Data set [10] is described as follows: Cytotoxicity against […] cell upto 500 uM. In kind it is toxicity, cell-based. The following applies: human.
For data set [11], the system named is Plasmodium falciparum. Kind of data set: Induction of mitochondrial membrane depolarization in trophozoite stage Plasmodium falciparum 3D7 infected in human RBC assessed as decrease in red to green fluorescence ratio at IC50 concentration incubated for 3 hrs by JC-1 dye based fluorescence microscopic analysis. In kind it is functional, organism-based.
For data set [12], the system named is Plasmodium falciparum. Kind of data set: Antiplasmodial activity against synchronized ring stage Plasmodium falciparum 3D7 infected in human RBC assessed as reduction in parasitemia percentage by measuring defect in invasion stage at IC50 concentration measured after 60 hrs by giemsa staining based light microscopic analysis. In kind it is functional, organism-based.

The test system of data set [13] is Plasmodium falciparum. Kind of data set: Induction of mitochondrial membrane depolarization in trophozoite stage Plasmodium falciparum 3D7 infected in human RBC assessed as red to green fluorescence ratio at IC50 concentration incubated for 3 hrs by JC-1 dye based spectrofluorometric analysis (reference value: 6.96+/-0.94). It is filed as functional.
For data set [14], the system named is Plasmodium falciparum. Description: Antimalarial activity against chloroquine-resistant synchronized late stage trophozoite Plasmodium falciparum RKL-9 infected in human RBC assessed as inhibition of plasmodial growth by giemsa staining based analysis. In kind it is functional, organism-based. As to conditions: RKL-9, Erythrocyte.
A short description of data set [15]: Cytotoxicity against human HepG2 cells. In kind it is toxicity, cell-based.
For data set [16], the system named is Plasmodium falciparum. Description: Synergistic antimalarial activity against synchronized ring stage Plasmodium falciparum 3D7 infected in human RBC assessed as mean fractional inhibitory concentration at 2:3 ratio of ART to compound incubated for 72 hrs by giemsa staining based flow cytometric analysis. In kind it is functional.
The subject of data set [17] is Plasmodium berghei. Kind of data set: Antimalarial activity against Plasmodium berghei ANKA in BALB/c mouse injected with parasite infected erythrocytes assessed as decrease in parasite load at 30 mg/kg, ip administered daily for 7 days relative to control. As to conditions: time 7 day. It is filed as functional. On the set-up: scale not given: the % may be the effect or the level left.

Data set [18] concerns Plasmodium falciparum. Kind of data set: Binding affinity to recombinant N-terminal 6His tagged Plasmodium falciparum alpha-1 tubulin expressed in Escherichia coli BL21 assessed as dissociation constant at 0.78 to 75 uM by SPR analysis. The following applies: dose 0.78-75 µM.
Data set [19] deals with Plasmodium falciparum. Kind of data set: Antimalarial activity against chloroquine-resistant Plasmodium falciparum RKL-9 infected in human RBC assessed as reduction of plasmodial growth by SYBR green dye based spectrofluorometric analysis. In kind it is functional, organism-based.
The test system of data set [20] is Plasmodium falciparum. Description: Induction of mitochondrial membrane depolarization in trophozoite stage Plasmodium falciparum 3D7 infected in human RBC assessed as increase in green fluorescence at IC50 concentration incubated for 3 hrs by JC-1 dye based fluorescence microscopic analysis. It is filed as functional, organism-based.
In data set [21] the test system is Plasmodium falciparum. Description: Antimalarial activity against chloroquine-sensitive synchronized late stage trophozoite Plasmodium falciparum 3D7 infected in human RBC assessed as inhibition of plasmodial growth by giemsa staining based analysis. In kind it is functional, organism-based. The following applies: 3D7, Erythrocyte.
Data set [22] deals with Plasmodium falciparum. Description: Binding affinity to recombinant N-terminal 6His tagged Plasmodium falciparum beta-tubulin expressed in Escherichia coli BL21 at 0.78 to 75 uM by SPR analysis. The following applies: dose 0.78-75 µM.
For data set [23], the system named is Plasmodium berghei. Description: Antimalarial activity against Plasmodium berghei ANKA in BALB/c mouse injected with parasite infected erythrocytes assessed as reduction in parasitemia at 30 mg/kg, ip administered daily for 7 days and measured after 15 days. As to conditions: time 15.0 day. In kind it is functional, organism-based.
Data set [24] can be described thus: Cytotoxicity against human U-937 cells assessed as reduction in cell viability incubated for 24 hrs by MTT assay. It is filed as toxicity, cell-based.
The test system of data set [25] is Plasmodium falciparum. Kind of data set: Antiplasmodial activity against […] incubated for 90 hrs by SYBR green I dye based analysis. In kind it is functional, organism-based. The following applies: 3D7, 90 h.

For `Cc1ccc2c(c1)C(=O)N([C@H](CC(C)C)c1nc3ccccc3n1Cc1cn(-c3ccc(F)cc3)nn1)C2=O`, the inhibition at 1 µM with Plasmodium falciparum [1] was determined as 0.3%. For the same molecule, the inhibition at 10 µM with Plasmodium falciparum [2] is 46%.
Regarding `CCC(C)[C@H](c1nc2ccccc2n1Cc1cn(-c2ccc(F)cc2)nn1)N1C(=O)c2ccccc2C1=O` (stereo partly drawn), in data set [3], the CC50 turned out to be 28800 nM. In the data set with Plasmodium falciparum [4], this molecule gave a pIC50 of 6.05.
Regarding `Cc1ccc2c(c1)C(=O)N([C@H](CC(C)C)c1nc3ccccc3n1Cc1c[nH]nn1)C2=O`, the inhibition at 1 µM in the data set on Plasmodium falciparum [1] was -64%. Further, in the data set with Plasmodium falciparum [2], the inhibition at 10 µM came to 71%.
Regarding `CC(C)[C@H](c1nc2ccccc2n1Cc1cn(-c2ccc(F)cc2F)nn1)N1C(=O)c2ccccc2C1=O`, in the data set on Plasmodium falciparum [1], the inhibition at 1 µM was -12%. Also, the inhibition at 10 µM in the data set on Plasmodium falciparum [2] was 88%.
The like results for `CCC(C)[C@H](c1nc2ccccc2n1Cc1cn(-c2c(F)c(F)c(F)c(F)c2F)nn1)N1C(=O)c2ccccc2C1=O` (stereo partly drawn) were, in that order, -44% and 77%.
For `Cc1ccc2c(c1)C(=O)N([C@H](CC(C)C)c1nc3ccccc3n1Cc1cn(-c3ccc(Cl)cc3)nn1)C2=O`, the inhibition at 1 µM in the data set with Plasmodium falciparum [1] worked out at 43%. The outcome in the data set on Plasmodium falciparum [5], in the data set with Plasmodium falciparum [8], with Plasmodium falciparum [11], in the data set on Plasmodium falciparum [12], with Plasmodium falciparum [20] and with Plasmodium berghei [23] was Active. The Activity entry with Erythrocyte was “Non-Toxic”; in [10], “Non-Toxic”; with Plasmodium falciparum [13], 4.62; with Plasmodium berghei [17], 3.6%; in the data set with Plasmodium falciparum [19] it was “Dose dependent effect”. For the same molecule, the MST in the data set with Plasmodium berghei [6] stood at 11.07 days. Further, the selectivity ratio in [7] is over 135. Also, the inhibition at 10 µM with Plasmodium falciparum [2] is 73%. Moreover, the FIC is on record as 0.98 with Plasmodium falciparum [9] and 0.87 with Plasmodium falciparum [16]. Moreover, the pIC50 with Plasmodium falciparum [4] was 6.19; in the data set on Plasmodium falciparum [14], 5.77; in data set [15], under 4.00; with Plasmodium falciparum [21] it was 6.13. For the same molecule, the outcome with Plasmodium falciparum [18] and in the data set with Plasmodium falciparum [22] was inactive.
As for `CCC(C)C(c1nc2ccccc2n1Cc1c[nH]nn1)N1C(=O)c2ccccc2C1=O` (stereo not drawn), in data set [24], the CC50 at 24 h is 2080 nM. Also, the pIC50 in the data set on Plasmodium falciparum [25] is 6.15.
The like results for `CCC(C)C(c1nc2ccccc2n1Cc1cn(-c2ccc(F)cc2)nn1)N1C(=O)c2ccccc2C1=O` (stereo not drawn) were, in that order, 28800 nM and 6.05.
For the molecule `CCC(C)[C@H](c1nc2ccccc2n1Cc1cn(-c2ccc(F)cc2F)nn1)N1C(=O)c2ccc(C)cc2C1=O` (stereo partly drawn), the inhibition at 1 µM in the data set on Plasmodium falciparum [1] was determined as 21%. In addition, in the data set on Plasmodium falciparum [2], the inhibition at 10 µM worked out at 94%.
The like results for `Cc1ccc2c(c1)C(=O)N([C@H](CC(C)C)c1nc3ccccc3n1Cc1cn(-c3ccc(C(F)(F)F)cc3)nn1)C2=O` were, in that order, 37% and 75%.
In the case of `Cc1ccc(-n2cc(Cn3c([C@@H](CC(C)C)N4C(=O)c5ccc(C)cc5C4=O)nc4ccccc43)nn2)cc1`, the inhibition at 1 µM with Plasmodium falciparum [1] was -8.63%. The inhibition at 10 µM in the data set on Plasmodium falciparum [2] worked out at 68.9%.
